Consider one substance from patent US12344879B2, “Transgenic bacteria with expanded amino acid usage and nucleic acid molecules for use in the same” (BOARD OF REGENTS, THE UNIVERSITY OF TEXAS SYSTEM, priority 2015, dated 2025).

In data set [1] the test system is NMC-A β-lactamase reporter (C69X C238X). Put plainly: NMC-A β-lactamase reporter assay in strain lacking release factor 1. The format is cell-based, E. coli RTΔA. As to conditions: RF1-deficient background, two amber codons. For orientation: A reporter such as luciferase makes a cellular process visible.
Data set [2] has as its system Pseudomonas aeruginosa azurin position 112. Put plainly: Selenocysteine incorporation into azurin C112X by intact mass spectrometry. Also on record: species or system E. coli RTΔA.2. As to conditions: peak areas of the mass spectrum. On the procedure: RTΔA.2 transformants containing pAz-C112X-AU and pRSF-eSelAK were cultured as described previously with the exception that 20 μM Na2SeO3 was added for the 24 hour incubation. Cells were harvested by centrifugation and the periplasmic fraction isolated. Briefly, cell pellets were resuspended in 50 mL of 100 mM Tris and 0.75 M sucrose at pH 7.5. Following addition of lysozyme to 1 mg·mL^−1 and protease inhibitor cocktail cells were gently agitated for 20 min at 4° C. 50 mL of 1 mM EDTA was added and samples incubated again for 20 minutes. EDTA was neutralized by addition of 3.5 mL 0.5M MgCl2 during a further 20 min incubation. Spheroblasts were removed by centrifugation at 35000×g for 30 min, the periplasmic fraction passed through a 0.2 µm filter and mixed with imidazole stock solution to a final concentration of 20 mM. Seleno-azurin was recovered by IMAC using Ni-NTA resin and gravity flow columns. Eluate was concentrated and dialyzed against 50 mM NH4Ac pH 6.5 prior to the isolation of seleno-azurin by size exclusion FPLC. […]
Intact protein samples were analyzed using methods described previously (Ellefson et al., 2014). […] UVPD mass spectra were also deconvoluted using Xtract and then analyzed using ProsightPC 3.0. […] Incorporation efficiencies were calculated by dividing the area of the modified protein peak by the summed areas of the unmodified protein peak and the modified protein peak. […]

In the case of “tRNA^SecUx: Evolved E. coli tRNA^Sec variant with the G7-C66:U49-G65:C50-U64 antideterminant sequence and CUA anticodon”, in data set [1], the “formation of functional diselenide bond (U69 and U238) in NMC-A” value is “could now support the formation of a functional diselenide bond”. In data set [2], the “selenocysteine incorporation efficiency in azurin” value is listed as “greater than 76%”.
